The assay has as its target T1, α1 homomeric glycine receptors (Rattus norvegicus, UniProt P07727).
T1 construct: expressed in transfected cells; host or cells: HEK 293 (transient transfection by electroporation, cDNA in pCIS2 vector)
T1 sequence (P07727 29-457): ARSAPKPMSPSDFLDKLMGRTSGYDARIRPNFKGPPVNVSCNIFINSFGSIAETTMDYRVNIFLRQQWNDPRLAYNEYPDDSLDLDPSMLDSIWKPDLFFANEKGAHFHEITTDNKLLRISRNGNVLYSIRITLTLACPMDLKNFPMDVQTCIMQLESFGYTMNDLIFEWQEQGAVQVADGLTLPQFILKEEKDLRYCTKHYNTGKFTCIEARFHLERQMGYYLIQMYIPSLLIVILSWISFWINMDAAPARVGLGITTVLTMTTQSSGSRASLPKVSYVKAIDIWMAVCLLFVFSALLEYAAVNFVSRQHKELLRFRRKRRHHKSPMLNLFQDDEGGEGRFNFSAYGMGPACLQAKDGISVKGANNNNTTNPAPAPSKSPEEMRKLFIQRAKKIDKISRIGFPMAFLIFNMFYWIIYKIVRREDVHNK
As to the kind of experiment: Whole-cell patch-clamp, Cl- current activated via α1 homomeric glycine receptors in transfected HEK 293 cells. Type of assay: cell-based. As for the experimental part:
Cells were cultured in Dulbecco's modified Eagle's medium (DMEM, Biochrom, Berlin, Germany), supplemented with 10% fetal calf serum (FCS, Biochrom, Berlin, Germany), 100 U ml^−1 penicillin and 100 μg ml^−1 streptomycin at 37° C. in a 5% CO2/air incubator. […] For co-transfection of rat α1 glycine receptor subunits, the corresponding cDNA, each subcloned in the pCIS2 expression vector (Invitrogen, San Diego, USA), was added to the suspension. To visualize transfected cells, they were co-transfected with cDNA of green fluorescent protein (GFP 10 μg ml^−1). For transfection, we used an electroporation device by EquiBio (Kent, UK).
The compounds according to the present invention under investigation were prepared as 1 M stock solution in ethanol, light-protected and stored in glass vessels at −20° C. Concentrations were calculated from the amount injected into the glass vials. Drug-containing vials were vigorously vortexed for 60 min. Glycine and picrotoxin were dissolved directly in bath solution.
Patch electrodes contained [mM] KCl 140, MgCl2 2, EGTA 11, HEPES 10, glucose 10; the bath solution contained [mM]
A tight electrical seal of several GΩ formed between the cell membrane and a patch-clamp electrode allows inward currents due to agonist-induced channel activation to resolve in the pA range. Electrical resistance of the pipettes was around 5 MΩ, corresponding to a total access resistance in the whole-cell configuration of about 10 MΩ. The compounds according to the present invention under investigation were applied to the cells via a smooth liquid filament achieved with a single outflow (glass tubing 0.15 mm inner diameter) connected to a piezo crystal. The cells were placed at the interface between this filament and the continuously flowing background solution. When a voltage pulse was applied to the piezo, the tube was moved up and down onto or away from the cell under investigation. Correct positioning of the cell in respect to the liquid filament was ensured applying a saturating (1000 μM) glycine pulse before and after each test experiment. Care was taken to ensure that the amplitude and the shape of the glycine-activated current had stabilized before proceeding with the experiment. Test solution and glycine (1000 μM) were applied via the same glass-polytetrafluoroethylen perfusion system, but from separate reservoirs. The contents of these reservoirs were mixed at a junction immediately before entering the superfusion chamber.
The compounds under test were applied alone in order to determine their direct agonistic effects. A new cell was used for each compound and each protocol, at least three different experiments were performed for each setting. The amount of the diluent ethanol corresponding to the highest compound concentration used was 34 000 μM.
For data acquisition and further analysis the inventors used the Axopatch 200B amplifier in combination with pClamp6 software (Axon Instruments, Union City, Calif., USA). Currents were filtered at 2 kHz. Fitting procedures were performed using a non-linear least-squares Marquardt-Levenberg algorithm. Details are provided in the appropriate figure legends or in the results section.
Activated currents were normalized to their own maximum response. The dose-response-curves were fitted according to (Inorm=[1+(EC50/[C])^nH]^−1), where Inorm is the current induced directly by the respective concentration [C] of the compound, normalized to the maximum inward current.
On the technique in general: The patch-clamp technique gives a direct electrical read-out from membranes.

Setting [1] is: EC50 (nM), α1 homomer, initial tests, Hill fit to normalised response, rat α1 receptors in HEK 293.

SMILES strings stand for the structures.

The values that follow come from patent US8507724B2 (priority 2008, dated 2013).

Take `CC(C)c1cc(-c2ccc(Cl)cc2)cc(C(C)C)c1O` [4-(p-Cl—Ph)-propofol, 4-(para-Chlorophenyl)-propofol]: under setting [1], the EC50 stood at 0.2 ± 0.3 nM. The “nH (Hill coefficient), α1 homomer” value (initial tests, Hill fit to normalised response) came out at 1.1 ± 0.5.

As for `CC(C)c1cc(-c2ccc(Cl)c(F)c2)cc(C(C)C)c1O` [p-(3-F,4-Cl—Ph)-propofol, Para-(3-Fluoro,4-chlorophenyl)-propofol], the EC50 is, setting by setting: under setting [1], 0.8 nM; (EC50, further series of tests (later tests)) 0.07 nM.

One may read the EC50 as the concentration needed to bring the measured effect to its halfway point.
